Laboratory results: patent publication US12336986B2, “Treatment and prevention of ocular neurodegenerative disorder” (The Jackson Laboratory, priority 2015, dated 2025)

What was measured:
sciatic nerve axons = details: blocking NAMPT; cited from earlier work
zebrafish = details: two-photon-laser axotomy; cited from earlier work
D2 mice = details: topical administration; cited from earlier work
[1] = test system: ganglion cell layer cells (GCL cells); assay: Whole retina explant culture (axotomy culture model), DAPI nuclei; assay type: cell-based, mouse
Text: Mice were euthanized, eyes enucleated and placed immediately into ice-cold HBSS. Retinas were dissected from the eyes in HBSS on ice, flat-mounted with the ganglion cell layer up on a cell culture insert (Millipore), and submerged in tissue culture media containing Neurobasal-A, 1% penicillin-streptomycin (10000 U/mL), 1% glutamine (100×), 1% N-2 (100×) and 1% B-27 (50×) (all ThermoFisher Scientific).
For drug treated retinas tissue culture media was made as above and supplemented with one of the following compounds (all Sigma unless otherwise): β-NAD, NAM (PanReac AppliChem), β-NMN. Retinas were incubated in 6-well plates at 37° C. and 4% CO2 for 5 days before being fixed in 4% PFA and stained with DAPI. (For untreated “Day 0” controls, retinas were dissected and placed straight into 4% PFA.) Retinas were imaged on a Zeiss AxioObserver.

PQQ tolerability in mice = assay type: in vivo, mouse
dorsal root ganglion = details: U.S. Pat. No. 7,776,326; cited from earlier work
[2] = survey of 6000 patients on high doses; cited from earlier work
[3] = axotomized retinas in culture, 5 days

Compound: O=C(/C=C/c1cccnc1)NCCCCC1CCN(C(=O)c2ccccc2)CC1 [FK866]
- axon degeneration following axonal injury (sciatic nerve axons): potentially inhibits this axon degeneration
- axon degeneration (zebrafish): potently delayed axon degeneration

Compound: CC(C)OC(=O)CCC/C=C\C[C@@H]1[C@@H](CC[C@@H](O)CCc2ccccc2)[C@H](O)C[C@@H]1O [Latanoprost]
- IOP (D2 mice): lowers IOP
- risk of developing neurodegeneration (D2 mice): reduces the risk of developing neurodegeneration

Compound: O=C(O)c1cc(C(=O)O)c2c(n1)C(=O)C(=O)c1cc(C(=O)O)[nH]c1-2 [PQQ, pyrroloquinoline quinone]
- nuclear diameter shrinkage (DAPI-labeled nuclei) ([1]; axotomized D2 retinas in culture, 5 days post-axotomy, NAM 100 mM and 500 mM): prevents
- ganglion cell layer cell death / cell density [1, 3]: prevents
- protective effect in retina tissue culture [1, 3]: protective in retina tissue culture
- tolerated dose (PQQ tolerability in mice): ≥ 2,000 mg/kg/day

Compound: CC12CC3CC(C)(C1)CC(N)(C3)C2 [memantine]
- IOP (D2 mice): lowers IOP
- risk of developing neurodegeneration (D2 mice): reduces the risk of developing neurodegeneration

Compound: O=C(O)c1cccnc1 [nicotinic acid]
- axonal degeneration after axotomy (dorsal root ganglion): did not work to diminish axonal degeneration
- cases of jaundice reported [2]: 3

Compound: CC(C)(C)NC[C@H](O)COc1nsnc1N1CCOCC1 [timolol]
- IOP (D2 mice): lowers IOP
- risk of developing neurodegeneration (D2 mice): reduces the risk of developing neurodegeneration

Compound: NC(=O)c1ccc[n+]([C@@H]2O[C@H](COP(=O)([O-])O)[C@@H](O)[C@H]2O)c1 [β-NMN, nicotinamide mononucleotide]
- protective effect in retina tissue culture [1, 3]: significant protective effects
